Patent US20220354911A1, “TREATMENT OF TUMORS BY A COMBINATION OF AN ONCOLYTIC ADENOVIRUS, A CDK4/6 INHIBITOR AND A FURTHER THERAPEUTICALLY ACTIVE AGENT” (KLINIKUM RECHTS DER ISAR DER TECHNISCHEN UNIVERSITÄT MÜNCHEN, priority 2019, published 2022)

What was measured:
SK-N-MC cells = test: Potency assay (SRB), XVir-N-31, Abemaciclib and JQ-1; assay type: cell-based; settings: CDK 4/6 (Abemaciclib) resistant SK-N-MC cells, 200 nM Abemaciclib + 500 nM JQ-1, XVir-N-31, 5 days post infection
Protocol: 100,000 SK-N-MC cells/well were seeded in 12-well plates and grown in RPMI Medium containing 10% FCS at 5% CO2 at 37° C. Cells were treated with 200 nM Abemaciclib+500 nM JQ-1 24 hours before and again 1 hour post infection by adding appropriate amount to the medium. Infection of XVir-N-31 took place in 500 μl in RPMI Medium without serum. SRB-Staining took place 5 days post infection. Mock treated cells were set 100% cell survival.

XVir-N-31 [1] = test: XVir-N-31 fiber DNA qPCR in glioblastoma cells, JQ1 and Ribociclib; assay type: cell-based, Mastadenovirus, Type C, Serotype 5; settings: U87 24 h.p.i., LN229 and T98G 48 h.p.i.
Protocol: 1×10^5 cells were seeded in 6 well plates in DMEM medium. The following day the cells were treated with the 500 nM LEE011 and 50 nM JQ1. At the next morning the cells were infected with 20 MOI for U87 and LN229, and 50 MOI for T98G respectively. One hour after infection DMEM Medium containing the inhibitors was added onto the cells. After each time point (4, 24, 48 hours) the cells were washed once with PBS and 200 μl of SDS DNA Lysis Buffer was added. The cells were incubated with Proteinase K for 1 hour before undergoing a phenol-chloroform-isoamylalcohol purification. The DNA was diluted in 1×TE buffer and the concentration of the DNA was determined using a Nanodrop. For each sample a solution of 10 ng/μl was prepared and a RT-qPCR using 50 ng of DNA and a GoTaq Master mix. Specific Fiber forward and reverse primers were used and for the calculation of the Δ ct value specific Actin primers were used as well. For each sample 3 Fiber and 2 Actin values were measured. The calculation was done in excel and each 24 and 48 hours was calculated based on its 4 hours value (initial viral entry, before replication).

LN229 cells = test: Western blot of XVir-N-31 infected LN229 cells, LEE011 and JQ1; assay type: cell-based
Protocol: 2.5×10^5 LN229 cells were seeded in 10 cm plates in DMEM medium. The following day the cells were treated with 500 nM LEE011 and 200 nM JQ1 or a combination of both. At the next morning the cells were infected with XVir-N-31 at 20 MOI. One hour after infection DMEM Medium containing the inhibitors was added on the cells. After each time point (24, 48, 72 hours) the cells were put on ice, washed twice with ice-cold PBS and 300 μl of SDS Protein Lysis Buffer was added. The cells were transferred to reaction tubes and the DNA sheared with a syringe and a needle and the supernatant transferred for further use after centrifugation. The protein concentration was measured with a BCA assay and samples with 4× Lämmli:DTT 6:1 and a concertation of 20 μg were produced and transferred to a 10% SDS gel. The gel electrophoresis started at 90V and was increased to 150V after the ladder started to separate. The proteins on the gel were blotted to a membrane for 2 hours at 100V and blocked in 5% milk in TBS-T for 1 hour at RT. After washing in TBS-T, the first antibody was added according to the manufacturer's information over night at 4° C. The used antibodies were directed to GAPDH, E1A, DBP, E2F1, Rb, pRb for all time points, and caspase 3 and the full length and cleaved version of PARP additionally for the 72 hours samples. The next day, the washing was repeated and the secondary antibody added for 1 hour at RT. Following the washing, ECL was used to image the chemiluminescence by the ChemiDoc™ MP Imaging System.

XVir-N-31 [2] = test: XVir-N-31 replication in UMUC-3 cells, JQ-1 priming or concurrent treatment (fiber qPCR); assay type: cell-based, Mastadenovirus, Type C, Serotype 5; settings: UMUC-3, 10 MOI, 100 nM or 500 nM JQ-1, 24 hours post infection
Protocol: 2.5×10^4 UMUC-3 cells were seeded in 12 well plates in DMEM medium. The following day the cells were treated with JQ-1 (priming) or DMEM medium. At the next morning the cells were infected with 10 MOI XVir-N-31. One hour after infection DMEM Medium containing JQ-1 was added on the cells (concurrent treatment). After each 4 and 24 hours, the cells were washed once with PBS and 200 μl of SDS DNA Lysis Buffer was added. The cells were incubated with Proteinase K for at least 1 hour before undergoing a phenol-chloroform-isoamylalcohol purification. The DNA was diluted in 1×TE buffer and the concentration of the DNA was determined using a Nanodrop. For each sample a solution of 15 ng/μl was prepared and a RT-qPCR using 75 ng of DNA and a GoTaq Master mix. Specific fiber forward and reverse primers were used and for the calculation of the Δ ct value specific Actin primers were used as well. For each sample 3 Fiber and 3 Actin values were measured. The calculation was done in excel and each 24 hours value was calculated based on its 4 hours value (initial viral entry, before replication).

UMUC-3 and RT112 = test: FACS cell cycle analysis, JQ-1 and Palbociclib; assay type: cell-based, human; settings: 100 or 300 nM JQ-1, 500 nM Palbociclib
Protocol: For such purpose, 5×10^4 cells UMUC-3 and RT112, respectively, were seeded in 6-well plates and 24 hours later treated with appropriate inhibitors. 1 day later, at approximately 80% confluency, cells were washed with PBS, trypsinized, washed again and fixated with icecold 80% ethanol. For cell cycle analysis, samples were incubated with the DNA-intercalating dye 7-aminoactinomycine D (7-AAD) and measured via FACS analysis. Evaluation of measured data was performed via the software FlowJo.

[3] = LN229, with XVir-N-31, 48 hours post infection
[4] = LN229, with XVir-N-31, 72 hours post infection

What does the source list for Cc1sc2c(c1C)C(c1ccc(Cl)cc1)=N[C@@H](CC(=O)OC(C)(C)C)c1nnc(C)n1-2 [JQ-1, thieno-triazolo-1-4-diazepine]?
cell killing on addition of JQ-1 (SK-N-MC cells): did not increase cell killing; XVir-N-31 replication (relative fiber DNA) (XVir-N-31 [1]): high increase in replication; viral proteins E1A and DBP (LN229 cells; LN229, XVir-N-31 MOI 20, 500 nM LEE011 or/and 200 nM JQ-1, 24 hours post infection): increased; viral proteins E1A and DBP (LN229 cells; LN229, XVir-N-31 MOI 20, 500 nM LEE011 or/and 200 nM JQ-1, 48 hours post infection): increased; viral proteins E1A and DBP (LN229 cells; LN229, XVir-N-31 MOI 20, 500 nM LEE011 or/and 200 nM JQ-1, 72 hours post infection): increased; cellular proteins Rb and pRb (LN229 cells; LN229, with XVir-N-31, 24 hours post infection): remained inhibited; E2F-1 (LN229 cells; [3]): stabilized; cellular proteins Rb and pRb (LN229 cells; [3]): remained inhibited; E2F1 (LN229 cells; [4]): enhanced; cellular protein Rb (LN229 cells; [4]): decreased; presence of cleaved PARP (LN229 cells; XVir-N-31 infected LN229 cells, 72 hours post infection): increased; XVir-N-31 replication, concurrent treatment with JQ-1 (XVir-N-31 [2]): crucial for dual therapy success; XVir-N-31 replication, priming with JQ-1 (XVir-N-31 [2]): no beneficial effect; cell cycle (UMUC-3 and RT112): no significant influence on the cell cycle
